In patent US20260216103A1, “USE OF LONG-ACTING ß2AR AGONIST IN PREPARATION OF DRUGS FOR TREATING CANCERS” (HONG KONG SXMETEROL PHARMACEUTICAL CO., LIMITED, priority 2023, published 2026):

Tests used:
[1] = system: hematoma cells SU-DHL-8; experiment: tumor sphere formation assay of hematoma cells; format: cell-based; details: 1 μM, 3 μM, or 10 μM, 7 d; FIG. 18
Source text: (§1) As a gold standard for detecting the self-renewal capability of cancer stem cells in vitro, a tumor sphere formation assay may detect individual cancer stem cell that continuously self-renew in a conditioned medium and form tumor spheres consisting of multiple cells. This in vitro experiment is often used to test the responsiveness of clinical patients to anticancer drugs, and guide in vivo medication of the clinical patients.

[2] = system: MDA-MB-231 breast cancer cells; experiment: orthotopic tumorigenesis experiment with SX-pretreated breast cancer cells; format: in vivo, mice; details: cells treated with 10 μM SX for 7 d
Description: (§2) Experimental method and steps: Cancer cells were treated with salmeterol xinafoate (SX) in vitro for 3-7 d, and a subcutaneous or orthotopic tumorigenesis experiment was conducted on mice.
MDA-MB-231 breast cancer cells were treated with 10 μM salmeterol xinafoate (SX) for 7 d, and cells (1×10^4/mouse) were injected into the orthotopic mammary fat pads on both sides of the body of mice in a control group and an SX treated group (5 mice/group) to conduct a tumorigenesis experiment. 8 orthotopic cancers formed at 10 injection sites in the orthotopic mammary fat pads of 5 mice in the control group, and only 6 orthotopic cancers formed at 10 injection sites in the orthotopic mammary fat pads of 5 mice in the SX treated group.
Experimental results in FIG. 4 show cancer growth curves and representative cancer photos.

[3] = system: prostate cancer cells PC-3, DU145, RM-1; experiment: tumor sphere formation assay of prostate cancer cells; format: cell-based; details: 1 μM, 3 μM, or 10 μM, 7 d; FIG. 19
Source text: as §1

[4] = system: pancreatic cancer cells CFPAC-1, PANC-1; experiment: tumor sphere formation assay of pancreatic cancer cells; format: cell-based; details: 1 μM, 3 μM, or 10 μM, 7 d; FIG. 24
Source text: as §1

[5] = system: head and neck cancer cells CAL-27; experiment: tumor sphere formation assay of head and neck cancer cells; format: cell-based; details: 1 μM, 3 μM, or 10 μM, 7 d; FIG. 14
Source text: as §1

[6] = system: a variety of cancers; experiment: orthotopic or subcutaneous tumorigenesis experiments in mice, summary; details: summary of in vivo tumorigenesis experiments; drug concentration of 10 μM
Description: as §2

[7] = system: cervical cancer cells Hela; experiment: tumor sphere formation assay of cervical cancer cells; format: cell-based; details: 1 μM, 3 μM, or 10 μM, 7 d; FIG. 27
Source text: as §1

[8] = system: colorectal cancer cells CT-26, SW620, HCT-15, DLD-1; experiment: tumor sphere formation assay of colorectal cancer cells; format: cell-based; details: 1 μM, 3 μM, or 10 μM, 7 d; FIG. 12
Source text: as §1

[9] = system: liver cancer cells Hep G2; experiment: tumor sphere formation assay of liver cancer cells; format: cell-based; details: 1 μM, 3 μM, or 10 μM, 7 d; FIG. 20
Source text: as §1

[10] = system: osteosarcoma cells U2OS; experiment: tumor sphere formation assay of osteosarcoma cells; format: cell-based; details: 1 μM, 3 μM, or 10 μM, 7 d; FIG. 26; P<0.01
Source text: as §1

[11] = system: H460 lung cancer cells; experiment: subcutaneous tumorigenesis experiment with SX-pretreated lung cancer cells (H460); format: in vivo, mice; details: cells treated with 10 μM SX for 7 d
Description: as §2
In FIG. 6A, H460 lung cancer cells were treated with 10 μM salmeterol xinafoate (SX) for 7 d, and cells (3×10^5/mouse) were subcutaneously injected on both sides of the back of mice in a control group (7 mice) and an SX treated group (5 mice) to conduct a tumorigenesis experiment.
Experimental results in FIG. 6 show cancer growth curves and representative cancer photos.

[12] = system: CAL-27 head and neck cancer cells; experiment: subcutaneous tumorigenesis experiment with SX-pretreated head and neck cancer cells; format: in vivo, mice; details: cells treated with 10 μM SX for 3 d, 1×10^6/mouse; FIG. 7; P<0.0001 vs control
Description: as §2
CAL-27 head and neck cancer cells were treated with 10 μM salmeterol xinafoate (SX) for 3 d, and cells (1×10^6/mouse) were subcutaneously injected on both sides of the back of mice in a control group and an SX treated group (3 mice/group) to conduct a tumorigenesis experiment.
Experimental results in FIG. 7 show cancer growth curves.

[13] = system: melanoma cells B16F10, A375, A2058; experiment: tumor sphere formation assay of melanoma cells; format: cell-based; details: 1 μM, 3 μM, or 10 μM, 7 d; FIG. 17
Source text: as §1

[14] = system: B16F10 melanoma cells; experiment: tumorigenesis experiment with SX-pretreated melanoma cells; format: in vivo, mice; details: cells treated with 10 μM SX for 3 d
Description: as §2
B16F10 melanoma cells were treated with 10 μM salmeterol xinafoate (SX) for 3 d, and cells (1×10^6/mouse) were subcutaneously injected on both sides of the back of mice in a control group and an SX treated group (4 mice/group) to conduct a tumorigenesis experiment. Cancers formed subcutaneously at all 8 injection sites of 4 mice in the control group, and cancers formed subcutaneously also at all 8 injection sites of 4 mice in the SX treated group.
Experimental results in FIG. 10 show cancer growth curves and representative cancer photos.

[15] = system: cancer stem cells of 17 cancers; experiment: tumor sphere formation assays of cancer cells, summary over 17 cancers; format: cell-based; details: summary of Examples 1-9; agonist used alone
Source text: as §1
Cancer stem cells have self-renewal capability, which determines the initiation and progression of cancers. As a gold standard for detecting the self-renewal capability of cancer stem cells in vitro, a tumor sphere formation assay may detect individual cancer stem cells that continuously self-renew in a conditioned medium and form tumor spheres consisting of multiple cells.

[16] = system: RT4 bladder cancer cells; experiment: subcutaneous tumorigenesis experiment with SX-pretreated bladder cancer cells; format: in vivo, mice; details: cells treated with 10 μM SX for 3 d, 1×10^6/mouse; FIG. 9; P<0.0001 vs control
Description: as §2
RT4 bladder cancer cells were treated with 10 μM salmeterol xinafoate (SX) for 3 d, and cells (1×10^6/mouse) were subcutaneously injected on both sides of the back of mice in a control group and an SX treated group (5 mice/group) to conduct a tumorigenesis experiment.
Experimental results in FIG. 9 show cancer growth curves.

[17] = system: breast cancer cells MDA-MB-231, 4T1, 168FARN, 67NR, 4TO7; experiment: tumor sphere formation assay of breast cancer cells; format: cell-based; details: 1 μM, 3 μM, or 10 μM, 7 d; FIG. 11
Source text: as §1
Experimental results in FIG. 11 show the number of tumor spheres from at least 3 independent experiments and representative tumor sphere photos.

OCc1cc(C(O)CNCCCCCCOCCCCc2ccccc2)ccc1O (centres unmarked) [salmeterol xinafoate]
number of tumor spheres (self-renewal capability of cancer stem cells) [1]: inhibited the self-renewal capability of the hematoma stem cells in a concentration dependent manner
orthotopic cancers formed at injection sites ([2]; 1×10^4/mouse into orthotopic mammary fat pads, 10 injection sites of 5 mice, control group 8): 6
cancer growth curves (initiation and progression) ([2]; FIG. 4, P<0.0001 vs control): inhibits the initiation and progression of orthotopic breast cancer
number of tumor spheres (self-renewal capability of cancer stem cells) [3]: inhibited the self-renewal capability of the prostate cancer stem cells in a concentration dependent manner
number of tumor spheres (self-renewal capability of cancer stem cells) [4]: inhibited the self-renewal capability of the pancreatic cancer stem cells in a concentration dependent manner
number of tumor spheres (self-renewal capability of cancer stem cells) [5]: inhibited the self-renewal capability of the head and neck cancer stem cells
cancer initiation and cancer growth [6]: not only inhibiting cancer initiation but also significantly inhibiting cancer growth
number of tumor spheres (self-renewal capability of cancer stem cells) [7]: inhibited the self-renewal capability of the cervical cancer stem cells in a concentration dependent manner
number of tumor spheres (self-renewal capability of cancer stem cells) [8]: inhibited the self-renewal capability of the colorectal cancer stem cells in a concentration dependent manner
number of tumor spheres (self-renewal capability of cancer stem cells) [9]: inhibited the self-renewal capability of the liver cancer stem cells in a concentration dependent manner
number of tumor spheres (self-renewal capability of cancer stem cells) [10]: inhibited the self-renewal capability of the osteosarcoma cancer stem cells
cancers formed subcutaneously at injection sites ([11]; 3×10^5/mouse, 10 injection sites of 5 mice, control group 11 at 14 sites): no cancers formed
cancer growth curves (initiation and progression) ([11]; FIG. 6A, P<0.0001 vs control): inhibits the initiation and progression of subcutaneous lung cancer
cancer growth curves (initiation and progression) [12]: inhibits the initiation and progression of subcutaneous head and neck cancer
number of tumor spheres (self-renewal capability of cancer stem cells) [13]: inhibited the self-renewal capability of the melanoma stem cells in a concentration dependent manner
cancers formed subcutaneously at injection sites ([14]; 1×10^6/mouse, 8 injection sites of 4 mice, control group all 8 sites): 8
cancer growth curves (initiation and progression) ([14]; FIG. 10, P<0.0001 vs control): inhibits the initiation and progression of orthotopic melanoma
self-renewal capability of cancer stem cells [15]: can significantly inhibit the self-renewal capability of cancer stem cells of 17 cancers
cancer growth curves (initiation and progression) [16]: inhibits the initiation and progression of subcutaneous bladder cancer
number of tumor spheres (self-renewal capability of cancer stem cells) [17]: inhibited the self-renewal capability of the breast cancer stem cells in a concentration dependent manner
